The source of these data is PubChem BioAssay (NCI).

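48-hour exposure; five concentrations; linearly interpolated endpoints. TGI denotes the concentration required for complete inhibition of growth.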 Where a SMILES comes first, the peptide text is derived from it. [ ]: non-standard residue; d: D form. The star is where a group is joined. ξ: configuration not given here. ξF = NC(Cc1ccccc1)C(=O)O; Cbz = O=C(OCc1ccccc1)*; Aib = CC(C)(N)C(=O)O; NHNH2 = NN*

Among the test systems are SW-620 colon; ACHN renal; A498 renal; HCC-2998 colon; MDA-MB-231 breast; SF-295 CNS; IGROV1 ovarian; HL-60(TB) leukemia; UACC-257 melanoma; MOLT-4 leukemia; OVCAR-8 ovarian; NCI-H226 lung; MDA-N; CCRF-CEM leukemia; NCI-H522 lung; SR leukemia.
Holding throughout (assay): NCI anticancer screen, dose series, 48 h

Take `c1ccc([P+](CCSCCSCC[P+](c2ccccc2)(c2ccccc2)c2ccccc2)(c2ccccc2)c2ccccc2)cc1`: the TGI in the assay with SW-620 colon, in the assay on ACHN renal, in the assay with A498 renal, in the assay on HCC-2998 colon, with MDA-MB-231 breast and in the assay with SF-295 CNS was above 100 µM in each case. The TGI in the assay on IGROV1 ovarian, in the assay on HL-60(TB) leukemia, in the assay on UACC-257 melanoma, with MOLT-4 leukemia, in the assay with OVCAR-8 ovarian and in the assay with NCI-H226 lung was above 100 µM throughout. Further, in the assay on MDA-N, the TGI was above 100 µM.
Take `N#Cc1nc(CCN2C(=O)c3ccccc3C2=O)oc1N`: the TGI with SW-620 colon, in the assay with ACHN renal, in the assay on HCC-2998 colon, in the assay on MDA-MB-231 breast, in the assay on SF-295 CNS and in the assay with IGROV1 ovarian was above 100 µM in each case. For the same compound, the TGI with CCRF-CEM leukemia, in the assay on UACC-257 melanoma, in the assay on MOLT-4 leukemia, in the assay on NCI-H522 lung, with SR leukemia and with OVCAR-8 ovarian was above 100 µM each time. Also, the TGI in the assay with NCI-H226 lung and with MDA-N was above 100 µM each time.
On to `C#C[C@]1(O)CC[C@H]2[C@@H]3CCC4=C/C(=N/OCCN(C)C)CC[C@]4(C)[C@H]3CC[C@@]21C`, for which the TGI was above 100 µM in the assay on SW-620 colon; above 100 µM in the assay with ACHN renal; above 100 µM in the assay on A498 renal; above 100 µM with HCC-2998 colon; above 100 µM with MDA-MB-231 breast; 32.4 µM in the assay with SF-295 CNS. Further, the TGI in the assay with IGROV1 ovarian is above 100 µM; with CCRF-CEM leukemia it was 83.1 µM; with UACC-257 melanoma, above 100 µM; in the assay with MOLT-4 leukemia, above 100 µM; in the assay on NCI-H522 lung, 62.6 µM; with SR leukemia it was 67.5 µM. Also, the TGI in the assay with OVCAR-8 ovarian was above 100 µM; with NCI-H226 lung, 85.8 µM; with MDA-N, 35.1 µM.
As for `COc1cc(NS(C)(=O)=O)ccc1Nc1cc[nH]c2ccc3nccc3c12`, the TGI in the assay with SW-620 colon was 41 µM; in the assay on ACHN renal, 32.8 µM; in the assay on A498 renal it was 30.7 µM; in the assay with MDA-MB-231 breast, 25 µM; in the assay with SF-295 CNS, 32.9 µM; in the assay with IGROV1 ovarian, 31.2 µM. The TGI in the assay with CCRF-CEM leukemia turned out to be 40.9 µM; in the assay with HL-60(TB) leukemia, 53.2 µM; in the assay with UACC-257 melanoma, 33.2 µM; with NCI-H522 lung it was 22.6 µM; with OVCAR-8 ovarian, 28.8 µM; in the assay on NCI-H226 lung it was 36.9 µM. This compound also came in with a TGI with MDA-N of 30.8 µM.
On to `O=c1[nH]c(=O)n(COCc2ccccc2)c2ccsc12`, for which the TGI in the assay on SW-620 colon, in the assay with ACHN renal, in the assay on A498 renal, in the assay on HCC-2998 colon, in the assay on MDA-MB-231 breast and with IGROV1 ovarian was above 100 µM in each case. For the same compound, the TGI in the assay with CCRF-CEM leukemia, in the assay with UACC-257 melanoma, in the assay on MOLT-4 leukemia, in the assay on NCI-H522 lung, with SR leukemia and in the assay on OVCAR-8 ovarian was above 100 µM each time. The TGI in the assay with NCI-H226 lung and in the assay with MDA-N was above 100 µM throughout.
`COC(=O)C1CCC(=O)N1CN(C(C)=O)c1ccccc1Cl` (stereo unspecified): the TGI in the assay on SW-620 colon, with ACHN renal, with A498 renal, in the assay on HCC-2998 colon, with MDA-MB-231 breast and in the assay on SF-295 CNS was above 100 µM each time. The TGI in the assay on IGROV1 ovarian, in the assay on UACC-257 melanoma, with MOLT-4 leukemia, in the assay on NCI-H522 lung, with SR leukemia and in the assay on OVCAR-8 ovarian was above 100 µM throughout. Moreover, the TGI with NCI-H226 lung and with MDA-N was above 100 µM each time.
With `CC(C)(NC(=O)OCc1ccccc1)C(=O)NC(Cc1ccccc1)C(=O)NN` (stereo unspecified) (Cbz-[Aib]-[ξF]-NHNH2), the TGI in the assay with SW-620 colon, in the assay on ACHN renal, in the assay with A498 renal, with MDA-MB-231 breast, in the assay on SF-295 CNS and in the assay with IGROV1 ovarian was above 100 µM throughout. The TGI in the assay on CCRF-CEM leukemia, with UACC-257 melanoma, in the assay on MOLT-4 leukemia, with NCI-H522 lung, in the assay with OVCAR-8 ovarian and in the assay on NCI-H226 lung was above 100 µM throughout. This compound also came in with a TGI in the assay on MDA-N above 100 µM.
For the compound `CC(Nc1ncc2c(n1)-c1ccccc1OC2)C(=O)O` (stereo unspecified), the TGI in the assay on SW-620 colon, with ACHN renal, in the assay on MDA-MB-231 breast, with SF-295 CNS, in the assay with IGROV1 ovarian and in the assay on CCRF-CEM leukemia was above 100 µM throughout. For the same compound, the TGI with HL-60(TB) leukemia is 26.1 µM; with UACC-257 melanoma, above 100 µM; with MOLT-4 leukemia, above 100 µM; in the assay with SR leukemia, above 100 µM; with OVCAR-8 ovarian, above 100 µM; in the assay with NCI-H226 lung, above 100 µM. In the assay on MDA-N, this compound gave a TGI above 100 µM.
Take `CCc1n[nH]c(=O)n1/N=C/c1ccccc1O`: the TGI in the assay with SW-620 colon, with ACHN renal, with HCC-2998 colon, with MDA-MB-231 breast, in the assay on SF-295 CNS and in the assay with IGROV1 ovarian was above 100 µM throughout. The TGI with CCRF-CEM leukemia, in the assay with UACC-257 melanoma, in the assay on MOLT-4 leukemia, in the assay with NCI-H522 lung, in the assay on SR leukemia and in the assay with OVCAR-8 ovarian was above 100 µM throughout. The compound further registered a TGI in the assay with MDA-N above 100 µM.
On to `Cc1ccc(NC(Nc2ccc(C)cc2C)=C(C(Cl)=C(Cl)Cl)[N+](=O)[O-])c(C)c1`, for which the TGI in the assay on SW-620 colon was 33.1 µM; with ACHN renal, 28.5 µM; in the assay on A498 renal it was 36.3 µM; in the assay with HCC-2998 colon it was 32.4 µM; in the assay on MDA-MB-231 breast it was 33 µM; in the assay on IGROV1 ovarian it was 29.2 µM. In addition, the TGI is 15.2 µM with CCRF-CEM leukemia; 22 µM in the assay on HL-60(TB) leukemia; 35.7 µM in the assay on UACC-257 melanoma; 31.2 µM in the assay on MOLT-4 leukemia; 28 µM in the assay on NCI-H522 lung; 11.3 µM in the assay with SR leukemia. Also, the TGI in the assay on OVCAR-8 ovarian was 33.9 µM; in the assay on NCI-H226 lung, 32.3 µM.
